Source: patent US20240360177A1, “PEPTIDES WITH ANTIMICROBIAL ACTIVITIES” (priority 2021, published 2024)
Converted amounts (≈) assume the structure as drawn. Non-standard residues stand in square brackets, D forms with d. Residues, ends and D or L forms follow the SMILES beside them. 4Pal = N[C@@H](Cc1ccncc1)C(=O)O; αMeL = CC(C)C[C@](C)(N)C(=O)O; NBuGly = CCCCNCC(=O)O; Ava = NCCCCC(=O)O

Experiments:
[1] = tested on: C. krusei; details: 24 h
[2] = tested on: C. dubliniensis; details: 24 h
[3] = tested on: C. tropicalis; details: 24 h
[4] = tested on: C. parapsilosis; details: 24 h
[5] = tested on: C. glabrata; details: 24 h
[6] = tested on: C. albicans; details: 24 h
[7] = tested on: C. auris; details: 24 h
[8] = tested on: Candida spp.; details: N = 15 strains

Compound | MIC C. krusei [1] | MIC C. dubliniensis [2] | MIC C. tropicalis [3] | MIC C. parapsilosis [4] | MIC C. glabrata [5] | MIC C. albicans [6] | MIC C. auris [7] | Activity at 24 h MIC50 against Candida spp. ([8]; 24 h (Table 13)) | Activity at 24 h MIC90 against Candida spp. ([8]; 24 h (Table 13)) | Activity at 48 h MIC50 against Candida spp. ([8]; 48 h (Table 13)) | Activity at 48 h MIC90 against Candida spp. ([8]; 48 h (Table 13))
N=C(N)NCCC[C@@H](N)C(=O)N[C@@H](CCCNC(=N)N)C(=O)N[C@H](CCCNC(=N)N)C(=O)NCCNCC(=O)N[C@H](CCCNC(=N)N)C(=O)N[C@@H](CCCNC(=N)N)C(=O)N[C@H](CCCNC(=N)N)C(=O)NCCNCC(=O)N[C@H](CCCNC(=N)N)C(=O)N[C@@H](CCCNC(=N)N)C(=O)N[C@H](CCCNC(=N)N)C(=O)N[C@@H](CCCNC(=N)N)C(=O)NCCNCC(=O)N[C@H](CCCNC(=N)N)C(=O)N[C@@H](CCCNC(=N)N)C(=O)N[C@H](CCCNC(=N)N)C(=O)N[C@@H](CCCNC(=N)N)C(N)=O [SEQ ID NO: 46, rRr-(Aeg)-rRr-(Aeg)-rRrR-(Aeg)-rRrR-NH2] | 0.5 µg/mL (≈ 0.2 µM) | 0.5 µg/mL (≈ 0.2 µM) | 0.5 µg/mL (≈ 0.2 µM) | 0.25 µg/mL (≈ 0.0998 µM) | 1 µg/mL (≈ 0.399 µM) | 0.5 µg/mL (≈ 0.2 µM) | 8 µg/mL (≈ 3.19 µM) |  |  |  | 
N=C(N)NCCC[C@@H](N)C(=O)N[C@@H](CCCNC(=N)N)C(=O)N[C@H](CCCNC(=N)N)C(=O)N[C@@H](CCCNC(=N)N)C(=O)N1CCC[C@H]1C(=O)N[C@H](CCCNC(=N)N)C(=O)N[C@@H](CCCNC(=N)N)C(=O)N[C@H](CCCNC(=N)N)C(=O)N[C@@H](CCCNC(=N)N)C(=O)N1CCC[C@H]1C(=O)N[C@H](CCCNC(=N)N)C(=O)N[C@@H](CCCNC(=N)N)C(=O)N[C@H](CCCNC(=N)N)C(=O)N[C@@H](CCCNC(=N)N)C(N)=O [SEQ ID NO: 67, rRrR-P-rRrR-P-rRrR-NH2] (H-[dR]R[dR]RP[dR]R[dR]RP[dR]R[dR]R-NH2) | 0.5 µg/mL (≈ 0.24 µM) | 0.25 µg/mL (≈ 0.12 µM) | 0.5 µg/mL (≈ 0.24 µM) | 0.25 µg/mL (≈ 0.12 µM) | 0.5 µg/mL (≈ 0.24 µM) | 0.25 µg/mL (≈ 0.12 µM) | 4 µg/mL (≈ 1.92 µM) |  |  |  | 
CCCCN(CC(=O)N[C@H](CCCNC(=N)N)C(=O)N[C@@H](CCCNC(=N)N)C(=O)N[C@H](CCCNC(=N)N)C(=O)N[C@@H](CCCNC(=N)N)C(N)=O)C(=O)[C@H](CCCNC(=N)N)NC(=O)[C@@H](CCCNC(=N)N)NC(=O)[C@H](CCCNC(=N)N)NC(=O)[C@@H](CCCNC(=N)N)NC(=O)CN(CCCC)C(=O)[C@@H](CCCNC(=N)N)NC(=O)[C@H](CCCNC(=N)N)NC(=O)[C@@H](CCCNC(=N)N)NC(=O)CN(CCCC)C(=O)[C@@H](CCCNC(=N)N)NC(=O)[C@H](CCCNC(=N)N)NC(=O)[C@H](N)CCCNC(=N)N [SEQ ID NO: 35, rRr-(ButylGly)-rRr-(ButylGly)-rRrR-(ButylGly)-rRrR-NH2] (H-[dR]R[dR][NBuGly][dR]R[dR][NBuGly][dR]R[dR]R[NBuGly][dR]R[dR]R-NH2) | 0.5 µg/mL (≈ 0.197 µM) | 0.5 µg/mL (≈ 0.197 µM) | 0.5 µg/mL (≈ 0.197 µM) | 0.25 µg/mL (≈ 0.0983 µM) | 0.5 µg/mL (≈ 0.197 µM) | 0.5 µg/mL (≈ 0.197 µM) | 0.5 µg/mL (≈ 0.197 µM) |  |  |  | 
N=C(N)NCCC[C@@H](N)C(=O)N[C@@H](CCCNC(=N)N)C(=O)N[C@H](CCCNC(=N)N)C(=O)N1CCC[C@H]1C(=O)N[C@H](CCCNC(=N)N)C(=O)N[C@@H](CCCNC(=N)N)C(=O)N[C@H](CCCNC(=N)N)C(=O)N1CCC[C@H]1C(=O)N[C@H](CCCNC(=N)N)C(=O)N[C@@H](CCCNC(=N)N)C(=O)N[C@H](CCCNC(=N)N)C(=O)N[C@@H](CCCNC(=N)N)C(=O)N1CCC[C@H]1C(=O)N[C@H](CCCNC(=N)N)C(=O)N[C@@H](CCCNC(=N)N)C(=O)N[C@H](CCCNC(=N)N)C(=O)N[C@@H](CCCNC(=N)N)C(=O)O [SEQ ID NO: 54, rRr-P-rRr-P-rRrR-P-rRrR] (H-[dR]R[dR]P[dR]R[dR]P[dR]R[dR]RP[dR]R[dR]R-OH) | 0.5 µg/mL (≈ 0.2 µM) | 0.5 µg/mL (≈ 0.2 µM) | 0.25 µg/mL (≈ 0.1 µM) | 0.25 µg/mL (≈ 0.1 µM) | 0.5 µg/mL (≈ 0.2 µM) | 0.25 µg/mL (≈ 0.1 µM) | 2 µg/mL (≈ 0.801 µM) |  |  |  | 
N=C(N)NCCC[C@@H](N)C(=O)N[C@@H](CCCNC(=N)N)C(=O)N[C@H](CCCNC(=N)N)C(=O)N[C@@H](CCCNC(=N)N)C(=O)NCCCCC(=O)N[C@H](CCCNC(=N)N)C(=O)N[C@@H](CCCNC(=N)N)C(=O)N[C@H](CCCNC(=N)N)C(=O)N[C@@H](CCCNC(=N)N)C(=O)NCCCCC(=O)N[C@H](CCCNC(=N)N)C(=O)N[C@@H](CCCNC(=N)N)C(=O)N[C@H](CCCNC(=N)N)C(=O)NCCCCC(=O)N[C@H](CCCNC(=N)N)C(=O)N[C@@H](CCCNC(=N)N)C(=O)N[C@H](CCCNC(=N)N)C(N)=O [SEQ ID NO: 21, rRrR-(Ava)-rRrR-(Ava)-rRr-(Ava)-rRr-NH2] (H-[dR]R[dR]R[Ava][dR]R[dR]R[Ava][dR]R[dR][Ava][dR]R[dR]-NH2) | 0.5 µg/mL (≈ 0.2 µM) | 0.5 µg/mL (≈ 0.2 µM) | 0.5 µg/mL (≈ 0.2 µM) | 0.25 µg/mL (≈ 0.1 µM) | 0.5 µg/mL (≈ 0.2 µM) | 0.5 µg/mL (≈ 0.2 µM) | 0.5 µg/mL (≈ 0.2 µM) |  |  |  | 
N=C(N)NCCC[C@@H](N)C(=O)N[C@@H](CCCNC(=N)N)C(=O)N[C@H](CCCNC(=N)N)C(=O)N[C@H](CCCNC(=N)N)C(=O)N[C@@H](CCCNC(=N)N)C(=O)N[C@H](CCCNC(=N)N)C(=O)N[C@H](CCCNC(=N)N)C(=O)N[C@@H](CCCNC(=N)N)C(=O)N[C@H](CCCNC(=N)N)C(=O)N[C@@H](CCCNC(=N)N)C(=O)N[C@H](CCCNC(=N)N)C(=O)N[C@@H](CCCNC(=N)N)C(=O)N[C@H](CCCNC(=N)N)C(=O)N[C@@H](CCCNC(=N)N)C(N)=O [14 Polyarginine, rRrrRrrRrRrRrR-NH2, reference compound] |  |  |  |  |  |  |  | 0.5 µg/mL | 8 µg/mL | 0.5 µg/mL | >32 µg/mL
N=C(N)NCCC[C@@H](N)C(=O)N[C@@H](CCCNC(=N)N)C(=O)N[C@H](CCCNC(=N)N)C(=O)NCCCCC(=O)N[C@H](CCCNC(=N)N)C(=O)N[C@@H](CCCNC(=N)N)C(=O)N[C@H](CCCNC(=N)N)C(=O)NCCCCC(=O)N[C@H](CCCNC(=N)N)C(=O)N[C@@H](CCCNC(=N)N)C(=O)N[C@H](CCCNC(=N)N)C(=O)N[C@@H](CCCNC(=N)N)C(=O)NCCCCC(=O)N[C@H](CCCNC(=N)N)C(=O)N[C@@H](CCCNC(=N)N)C(=O)N[C@H](CCCNC(=N)N)C(=O)N[C@@H](CCCNC(=N)N)C(=O)O [SEQ ID NO: 19, rRr-(Ava)-rRr-(Ava)-rRrR-(Ava)-rRrR] (H-[dR]R[dR][Ava][dR]R[dR][Ava][dR]R[dR]R[Ava][dR]R[dR]R-OH) | 1 µg/mL (≈ 0.4 µM) | 0.5 µg/mL (≈ 0.2 µM) | 0.5 µg/mL (≈ 0.2 µM) | 0.25 µg/mL (≈ 0.0999 µM) | 0.5 µg/mL (≈ 0.2 µM) | 0.5 µg/mL (≈ 0.2 µM) | 2 µg/mL (≈ 0.799 µM) |  |  |  | 
N=C(N)NCCC[C@@H](N)C(=O)N[C@@H](CCCNC(=N)N)C(=O)N[C@H](CCCNC(=N)N)C(=O)N[C@@H](Cc1ccncc1)C(=O)N[C@H](CCCNC(=N)N)C(=O)N[C@@H](CCCNC(=N)N)C(=O)N[C@H](CCCNC(=N)N)C(=O)N[C@@H](Cc1ccncc1)C(=O)N[C@H](CCCNC(=N)N)C(=O)N[C@@H](CCCNC(=N)N)C(=O)N[C@H](CCCNC(=N)N)C(=O)N[C@@H](CCCNC(=N)N)C(=O)N[C@@H](Cc1ccncc1)C(=O)N[C@H](CCCNC(=N)N)C(=O)N[C@@H](CCCNC(=N)N)C(=O)N[C@H](CCCNC(=N)N)C(=O)N[C@@H](CCCNC(=N)N)C(N)=O [SEQ ID NO: 77, rRr-(4-PyrAla)-rRr-(4-PyrAla)-rRrR-(4-PyrAla)-rRrR-NH2] (H-[dR]R[dR][4Pal][dR]R[dR][4Pal][dR]R[dR]R[4Pal][dR]R[dR]R-NH2) | 0.5 µg/mL (≈ 0.189 µM) | 0.5 µg/mL (≈ 0.189 µM) | 0.5 µg/mL (≈ 0.189 µM) | 0.25 µg/mL (≈ 0.0944 µM) | 0.5 µg/mL (≈ 0.189 µM) | 0.5 µg/mL (≈ 0.189 µM) | 0.5 µg/mL (≈ 0.189 µM) |  |  |  | 
rRr-(Apg)-rRr-(Apg)-rRrR-(Apg)-rRrR-NH2 [SEQ ID NO: 38] | 0.25 µg/mL | 0.5 µg/mL | 0.5 µg/mL | 0.25 µg/mL | 1 µg/mL | 0.5 µg/mL | 2 µg/mL |  |  |  | 
CC(C)C[C@](C)(NC(=O)[C@H](CCCNC(=N)N)NC(=O)[C@@H](CCCNC(=N)N)NC(=O)[C@H](CCCNC(=N)N)NC(=O)[C@@H](CCCNC(=N)N)NC(=O)[C@](C)(CC(C)C)NC(=O)[C@@H](CCCNC(=N)N)NC(=O)[C@H](CCCNC(=N)N)NC(=O)[C@@H](CCCNC(=N)N)NC(=O)[C@](C)(CC(C)C)NC(=O)[C@@H](CCCNC(=N)N)NC(=O)[C@H](CCCNC(=N)N)NC(=O)[C@H](N)CCCNC(=N)N)C(=O)N[C@H](CCCNC(=N)N)C(=O)N[C@@H](CCCNC(=N)N)C(=O)N[C@H](CCCNC(=N)N)C(=O)N[C@@H](CCCNC(=N)N)C(N)=O [SEQ ID NO: 37, rRr-Leu(Me)-rRr-Leu(Me)-rRrR-Leu(Me)-rRrR-NH2] (H-[dR]R[dR][αMeL][dR]R[dR][αMeL][dR]R[dR]R[αMeL][dR]R[dR]R-NH2) | 1 µg/mL (≈ 0.387 µM) | 0.5 µg/mL (≈ 0.193 µM) | 0.5 µg/mL (≈ 0.193 µM) | 0.5 µg/mL (≈ 0.193 µM) | 0.5 µg/mL (≈ 0.193 µM) | 0.5 µg/mL (≈ 0.193 µM) | 1 µg/mL (≈ 0.387 µM) |  |  |  | 
